# Assay results reported in patent US6759402B2, “Cyclic felbamate derived compounds” (University of Virginia Patent Foundation, priority 1999, dated 2004).
# Marks after values point to notes of the source that are not given here.
# Legend:
# [1] = Stability of oxazinane-dione at relevant pH; type: physicochemical
# [2] = system: MES-induced seizure spread; test: Maximal Electroshock Seizure (MES) test, rats p.o.; type: in vivo; conditions: for anti-seizure activity in rats: rat models; for MES protection: rats, oral, several timepoints; for MES protection / MES: number of animals protected/total number of animals tested: 30 mg/kg; for MES: number of animals protected/total number of animals tested: rat p.o.
# Source text: (§1) The fluoro derivatives synthesized were submitted to the National Institute of Neurological Disorders and Stroke (NINDS) for evaluation in a standard panel of assays. Two convulsant tests (MES and scMET), and a toxicity screen (rotorod in mice, positional sense and gait in rats) were employed for evaluating the compounds activity as neuroprotecting agents. These testing procedures are described in detail in Molecular and Cellular Targets for Anti-epileptic Drugs, eds. G. Avanzini, G. Regesta, P. Tanganelli, M. Avoli, 1997, John Libbey & Company Ltd, pp 191-198. The felbamate derivatives were evaluated for anticonvulsant activity following intraperitoneal (i.p.) administration in mice and oral administration in rats.
# (§2) The MES test is a model for generalized tonic-clonic seizures and is used to identify compounds which prevent seizure spread. The behavioral and electrographic seizures generated in this model are consistent with the human disorder. In the MES test, an electrical stimulus of 0.2 s in duration (50 mA in mice and 150 mA in rat at 60 Hz) was delivered via corneal electrodes primed with an electrolyte solution containing an anesthetic agent. Mice were tested at 30 minutes and 4 hours following doses of 30, 100 and 300 mg/kg of test compound. Rats were tested at time intervals between 0.25 and 4 hours following a standard oral dose of 30 mg/kg. Abolition of the hindlimb tonic extensor component indicates the test compound's ability to inhibit MES-induced seizure spread.
# (§3) For the MES and scMET tests the data is presented in the form of the number of animals protected by the administered compound/total number of animals tested. […] Qualitative data was obtained for fluoro felbamate 12 (Tables 1 and 2A), fluoro monocarbamate felbamate 13 (Tables 1 and 2B), and flourodioxo 16 (Tables 1 and 2C) and for cyclic felbamate 21 (Tables 5 and 6B) and cyclic monocarbamate 22 (Tables 5 and 6A). More extensive quantitative data was also obtained for fluoro felbamate 12 in mice (Table 3) and rats (Table 4).
# [3] = system: MES-induced seizure spread; test: Maximal Electroshock Seizure (MES) test, mice i.p.; type: in vivo; conditions: for MES: number of animals protected/total number of animals tested: mice i.p.
# Source text: as §1, §2, §3
# [4] = system: pentylenetetrazol-induced clonic seizures; test: Subcutaneous Metrazol seizure test (scMET), mice i.p.; type: in vivo, Carworth Farms No. 1 mice
# Source text: as §1
# This is a model that primarily identifies compounds that raise seizure threshold. With some minor exceptions, the pharmacological profile of the scMET seizure model is consistent with the human condition. The scMET test utilizes a dose of pentylenetetrazol (85 mg/kg in Carworth Farms No. 1 mice and 70 mg/kg in Sprague-Dawley rats) that induces clonic seizures lasting for a period of at least five seconds in 97% (CD97) of animals tested. At the anticipated time of testing the convulsant is administered subcutaneously. The test compound is administered intraperitoneally in mice and orally in rats. Animals are observed over a 30 minute period. Absence of clonic spasms in the observed time period indicates a compound's ability to abolish the effect of pentylenetetrazol on seizure threshold.
# as §3
# [5] = system: rats (positional sense, gait and stance); test: Minimal neurotoxicity (TOX), positional sense and gait and stance tests, rats p.o.; type: in vivo; conditions: for TOX: number of animals exhibiting toxic effects/total number of animals tested: rat p.o., 30 mg/kg
# Source text: as §1, with “G. Avanzini, G. Regesta, P. Tanganelli, M. Avoli, 1997, John Libbey & Company Ltd, pp 191-198.” left out
# Rats are examined for behavioral toxicity by the positional sense test and a gait and stance test. […] In the gait and stance test, neurotoxicity is indicated by a circular or zigzag gait, ataxia, abnormal spread of the legs, abnormal posture, tremor hyperactivity, lack of exploratory behavior, somnolence, stupor or catalepsy.
# For the MES and scMET tests the data is presented in the form of the number of animals protected by the administered compound/total number of animals tested.
# [6] = system: mice (rotorod); test: Minimal neurotoxicity (TOX), rotorod test, mice i.p.; type: in vivo; conditions: for TOX: number of animals exhibiting toxic effects/total number of animals tested: mice i.p.
# Source text: as §1, with “G. Avanzini, G. Regesta, P. Tanganelli, M. Avoli, 1997, John Libbey & Company Ltd, pp 191-198.” left out, “rats. […]” for “rats.”
# [7] = system: hippocampal kindled focal seizures; test: Hippocampal kindling model, kindled rats i.p.; type: in vivo, adult male Sprague-Dawley rats; conditions: for Number Protected/Number Tested: Dose Responses table
# Source text: The hippocampal kindling model can be used to evaluate a compound's ability to affect both the expression and acquisition of focal seizures. The hippocampal kindling paradigm as described by Lothman and Williamson (Lothman, 1994) allows the temporal effects of a drug to be evaluated in a single animal. This procedure requires the surgical placement of bipolar electrodes in the ventral hippocampus of adult male Sprague-Dawley rats. Stage five behavioral seizures are produced by using a stimulus consisting of a 50 Hz, 10 s train of 1 ms biphasic 200 uA pulses delivered every 30 min for 6 hours (12 stimuli per day) on alternating days for a total of 60 stimulations (five stimulus days). Prior to evaluating a candidate's anticonvulsant activity, a drug free control period consisting of supramaximal stimulations are recorded to verify the stability of a stage five generalized seizure.
# A single dose of the candidate compound is then administered intraperitoneally (i.p.), 15 min following the last control stimulation. The anticonvulsant activity of the drug is assessed every 30 min for three to four hours starting 15 min after administering the test material. After each stimulation, individual Racine seizure scores and afterdischarge durations are recorded. Rats are used again in drug trials after four to five drug- and stimulus-free days.
smiles,measurement,setting,value
O=C1NC(=O)C(c2ccccc2)CO1 (stereo not drawn) [oxazinane-dione 9],stability at relevant pH,[1],unstable
"O=C1NC(=O)C(F)(c2ccccc2)CO1 (stereo not drawn) [fluoro dioxo, 5-Fluoro-5-phenyl-1,3-oxazinane-2,4-dione]",anti-seizure activity in rats,[2],strong anti-seizure activity
same,anti-seizure activity in mice,[3]; mice,inactive
"NC(=O)OCC(F)(CO)c1ccccc1 (stereo not drawn) [fluoro monocarbamate felbamate, 2-Fluoro-2-phenyl-1,3-propanediol monocarbamate]",MES protection,[2],protection is seen at several different timepoints
same,MES protection,"[3]; mice, 100 mg/kg",moderate MES protection
NC(=O)OCC1(c2ccccc2)COC(=O)N1 (stereo not drawn) [cyclic felbamate],ScMET: number of animals protected/total number of animals tested,"[4]; 30 mg/kg, 0.5 h",0/1
same,ScMET: number of animals protected/total number of animals tested,"[4]; 30 mg/kg, 4.0 h",0/1
same,ScMET: number of animals protected/total number of animals tested,"[4]; 100 mg/kg, 0.5 h",0/1
same,ScMET: number of animals protected/total number of animals tested,"[4]; 100 mg/kg, 4.0 h",0/1
same,ScMET: number of animals protected/total number of animals tested,"[4]; 300 mg/kg, 0.5 h",0/1
same,ScMET: number of animals protected/total number of animals tested,"[4]; 300 mg/kg, 4.0 h",0/1
same,anti-seizure activity in rats,[2],potent activity
same,MES: number of animals protected/total number of animals tested,[2]; 0.25 h,2/4
same,MES: number of animals protected/total number of animals tested,[2]; 0.5 h,2/4
same,MES: number of animals protected/total number of animals tested,[2]; 1.0 h,3/4
same,MES: number of animals protected/total number of animals tested,[2]; 2.0 h,0/4
same,MES: number of animals protected/total number of animals tested,[2]; 4.0 h,3/4
same,MES: number of animals protected/total number of animals tested,"[3]; 30 mg/kg, 0.5 h",0/1
same,MES: number of animals protected/total number of animals tested,"[3]; 30 mg/kg, 4.0 h",0/1
same,MES: number of animals protected/total number of animals tested,"[3]; 100 mg/kg, 0.5 h",0/3
same,MES: number of animals protected/total number of animals tested,"[3]; 100 mg/kg, 4.0 h",0/3
same,MES: number of animals protected/total number of animals tested,"[3]; 300 mg/kg, 0.5 h",0/1
same,MES: number of animals protected/total number of animals tested,"[3]; 300 mg/kg, 4.0 h",0/1
same,TOX: number of animals exhibiting toxic effects/total number of animals tested,[5]; 0.25 h,0/4
same,TOX: number of animals exhibiting toxic effects/total number of animals tested,[5]; 0.5 h,0/4
same,TOX: number of animals exhibiting toxic effects/total number of animals tested,[5]; 1.0 h,0/4
same,TOX: number of animals exhibiting toxic effects/total number of animals tested,[5]; 2.0 h,0/4
same,TOX: number of animals exhibiting toxic effects/total number of animals tested,[5]; 4.0 h,0/4
same,TOX: number of animals exhibiting toxic effects/total number of animals tested,"[6]; 30 mg/kg, 0.5 h",0/4
same,TOX: number of animals exhibiting toxic effects/total number of animals tested,"[6]; 30 mg/kg, 4.0 h",0/2
same,TOX: number of animals exhibiting toxic effects/total number of animals tested,"[6]; 100 mg/kg, 0.5 h",0/8
same,TOX: number of animals exhibiting toxic effects/total number of animals tested,"[6]; 100 mg/kg, 4.0 h",0/4
same,TOX: number of animals exhibiting toxic effects/total number of animals tested,"[6]; 300 mg/kg, 0.5 h",0/4
same,TOX: number of animals exhibiting toxic effects/total number of animals tested,"[6]; 300 mg/kg, 4.0 h",0/2
"NC(=O)OCC(F)(COC(N)=O)c1ccccc1 [fluoro felbamate, 2-Fluoro-2-phenyl-1,3-propanediol dicarbamate]",MES protection,[2],full protection
same,Number Protected/Number Tested,[7]; 25 mg/kg,0/7
same,Number Protected/Number Tested,[7]; 50 mg/kg,3/7
same,Number Protected/Number Tested,[7]; 100 mg/kg,7/8^a
same,afterdischarge duration,"[7]; kindled rats, 100 mg/kg",corresponding decrease in afterdischarge duration
same,seizure score,"[7]; kindled rats, 100 mg/kg",significant drop in seizure score
same,MES protection,"[3]; mice, 30 mg/kg, at both 30 minutes and 4 hours",MES protective effects
same,times more active than felbamate,[3]; test not specified,5-10 times
same,no toxicity at doses up to,[5]; oral administration to rats,up to 500 mg/kg
same,TOX ED50,"[5]; rat, p.o.",>500 mg/kg
same,dosage at which toxicity across time occurs,[6]; mice,≥ 300 mg/kg
same,toxic effects,"[6]; mice, 30 mg/kg, 30 minute timepoint",some toxic effects
same,safety ratio,"[6]; mice, quantitative results (Table 3)",at least five
same,TOX ED50,"[6]; mouse, I.P.",115 mg/kg
